In assay [1] the target is T1, MmGSTP1-1 (Mus musculus, UniProt P19157).
T1 construct: gene Gstp1; recombinant MmGSTP1-1 (GenBank BC061109.1), expressed in E. coli
The assay can be described thus: CDNB-GSH enzyme assay, single concentration […]. Type of assay: biochemical. The settings on record: read-out: % inhibition at 25 μM.

Assay [2] has as its target T1, MmGSTP1-1. The assay can be described thus: CDNB-GSH enzyme assay at […] nm, inhibition kinetics (KiE, GSH varied); IC50 […]. In kind it is biochemical.
Assay [3] has as its target T1, MmGSTP1-1. The experiment in a line: X-ray co-crystal structure, […] Å. Type of assay: binding.
Assay [4] concerns the target T1, MmGSTP1-1. The experiment in a line: steady-state kinetics (Km). Type of assay: biochemical.

T1 sequence (P19157 2-210): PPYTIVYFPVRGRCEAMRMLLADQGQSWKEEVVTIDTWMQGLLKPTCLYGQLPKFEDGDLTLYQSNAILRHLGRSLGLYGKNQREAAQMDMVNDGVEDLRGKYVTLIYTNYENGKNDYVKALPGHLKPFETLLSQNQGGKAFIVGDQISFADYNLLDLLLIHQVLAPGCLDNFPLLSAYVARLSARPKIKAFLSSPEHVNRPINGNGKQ

By inhibition is commonly meant the percentage by which the read-out fell short of the control. In the case of `CC1(C)[C@H](C(=O)O[C@H](C#N)c2cccc(Oc3ccccc3)c2)[C@@H]1C=C(Br)Br` [deltamethrin], the inhibition at 25 µM at MmGSTP1-1 [1] was found to be 82%. In general, Ki refers to a dissociation constant, usually derived from enzyme kinetics or from competition with a known ligand. Compound `CC(C)NC(=O)N1CC(=O)N(c2cc(Cl)cc(Cl)c2)C1=O` [iprodione, 3-(3,5-dichlorophenyl)-2,4-dioxo-N-propan-2-ylimidazolidine-1-carboxamide] returned a Ki on MmGSTP1-1 [2] of 5.2 ± 0.1 µM. For the compound `Cc1cc(C)c(C2=C(OC(=O)CC(C)(C)C)C3(CCCC3)OC2=O)c(C)c1` [spiromesifen], the inhibition at 25 µM at MmGSTP1-1 [1] came out at 70%. `N[C@@H](CCC(=O)N[C@@H](CSCc1ccc([N+](=O)[O-])cc1)C(=O)NCC(=O)O)C(=O)O` [S-(p-nitrobenzyl)glutathione]: the “X-ray co-crystal structure, 1.28 Å” value on MmGSTP1-1 [3] was “A molecule of Nb-GSH was found bound in the active site of each molecule of the dimer”. Turning to `O=S1OC[C@@H]2[C@H](CO1)[C@@]1(Cl)C(Cl)=C(Cl)[C@]2(Cl)C1(Cl)Cl` (stereo partly drawn) [α-endosulfan], the inhibition at 25 µM at MmGSTP1-1 [1] turned out to be 58%. Consider `CSC1=N[C@@](C)(c2ccccc2)C(=O)N1Nc1ccccc1` [fenamidone], for which the inhibition at 25 µM at MmGSTP1-1 [1] amounted to 53%. By Km is commonly meant the substrate concentration at which the rate is half of its maximum. For `O=[N+]([O-])c1ccc(Cl)c([N+](=O)[O-])c1` [1-chloro-2,4-dinitrobenzene], at MmGSTP1-1 [4], the Km was 800 ± 40 µM.

Values taken from paper PMC10136361 (Biomolecules, 2023).
